The text below walks through data of US7494824B2, “Interactive system for presenting and eliminating substances” (Max-Planck-Gesellschaft zur Förderung der Wissenschaften e. …, priority 1997, dated 2009).

The target in series [1] is thrombin (Homo sapiens, UniProt P00734). The settings on record: previous analyses, Dickneite G. et al.; cited from earlier work.
The nature of series [2]: Urea breakdown in blood plasma solution on urease-doped PMMA capillary dialyzer system. The format is biochemical. The protocol:
As model enzyme, urease (EC 3.5.1.5., available from Sigma, order no. U 1500) is used. The preparation of a PEG-coupled urease preparation: 100 mg urease (type III, specific activity 20,000 to 30,000 U/g) are dissolved in 80 ml 0.1-mol borate buffer (pH 8) and added to 250 mg methoxy polyethylene glycol (25,000)-4-nitrophenyl carbonate and incubated for 24 h at 5° C. The reaction is stopped by a several times higher molar excess of TRIS, dialyzed against TRIS-HCl (pH 8) and developed in a HP-Q-sepharose column having a linear NaCl gradient (pH 8). The PEG urease conjugate elutes-at 180 to 200 mmol NaCl. The yield of PEG urease conjugate is 30-40%. The enzyme activity is measured by means of a urea assay. The cleaving activity is monitored by way of pH titration measuring and compared with non-conjugated urease. […] The urease coupled with 25 kD-polyethylene glycol is applied in a concentration of 2 mg (based on the protein content of the conjugate) to a miniaturized experimental capillary dialyzer having a surface of 50 cm^2. Already after the first circulation, more than 90% of the urease are immobilized on the surface. By the fifth recirculation cycle, the PEG urease is firmly installed on the surface of the membrane. […] A blood plasma solution (50 ml containing 30 mg urea) is applied to the urease-doped PMMA capillary dialyzer system. In the eluate of the experimental PEG-urease-PMMA membrane, the remaining amounts of urea are identified after 5, 10, 20, and 30 minutes by way of an enzyme assay. […] The ammonia test in the blood is positive during the last 25 minutes of the experiment. From the analysis, it can be doubtlessly concluded that a pegylated enzyme, bonded to the PMMA membrane, develops a local enzyme activity and is able to generate corresponding specific interactions with its substrate in the circulating blood.

The nature of series [3]: Urea assay of enzyme activity, pH titration, compared with non-conjugated urease. The format is biochemical. The protocol: (§1) As model enzyme, urease (EC 3.5.1.5., available from Sigma, order no. U 1500) is used. The preparation of a PEG-coupled urease preparation: 100 mg urease (type III, specific activity 20,000 to 30,000 U/g) are dissolved in 80 ml 0.1-mol borate buffer (pH 8) and added to 250 mg methoxy polyethylene glycol (25,000)-4-nitrophenyl carbonate and incubated for 24 h at 5° C. The reaction is stopped by a several times higher molar excess of TRIS, dialyzed against TRIS-HCl (pH 8) and developed in a HP-Q-sepharose column having a linear NaCl gradient (pH 8). The PEG urease conjugate elutes-at 180 to 200 mmol NaCl. The yield of PEG urease conjugate is 30-40%. The enzyme activity is measured by means of a urea assay. The cleaving activity is monitored by way of pH titration measuring and compared with non-conjugated urease. […] The urease coupled with 25 kD-polyethylene glycol is applied in a concentration of 2 mg (based on the protein content of the conjugate) to a miniaturized experimental capillary dialyzer having a surface of 50 cm^2. Already after the first circulation, more than 90% of the urease are immobilized on the surface. By the fifth recirculation cycle, the PEG urease is firmly installed on the surface of the membrane. […] A blood plasma solution (50 ml containing 30 mg urea) is applied to the urease-doped PMMA capillary dialyzer system. […]

A short description of series [4]: Immobilization of PEG urease on miniaturized experimental PMMA capillary dialyzer. The conditions noted are these: 2 mg on 50 cm^2 dialyzer, after the first circulation. The protocol: as §1

For Mtr-Asn-D-Adf-Pip, the “thrombin inhibiting agent quality” value in series [1] is “highly specific and effective”.

Consider “PEG urease: urease (EC 3.5.1.5., Sigma) coupled with 25 kD-polyethylene glycol”, for which, in series [2] (50 ml plasma containing 30 mg urea, after 30 min), the “remaining urea in the eluate” value is “unbound urea cannot be identified anymore”. The “urea concentration in the blood plasma” value in series [2] (50 ml plasma containing 30 mg urea, within the first 10 min) was “decreases rapidly”. Also, in series [2] (during the last 25 minutes of the experiment), the “ammonia test in the blood” value is reported as “positive”. Further, the “influence of pegylation on the ureolytic activity of the enzyme” value in series [3] is listed as “slightly activity-increasing”. The “urease immobilized on the surface” value in series [4] is listed as “more than 90%”.
